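Values below derive from 48-hour exposures of cells grown in 96-well plates, with endpoints linearly interpolated between the two concentrations bracketing the appropriate inhibition level. The concentration for 50% growth inhibition is given as GI50. TGI denotes the concentration required for complete inhibition of growth.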
Experiments:
Test in all cases: NCI tumour cell line growth inhibition, 48 h
[1] = tested on: A498 renal
[2] = tested on: A549 NSCLC
[3] = tested on: CAKI-1 renal
[4] = tested on: CCRF-CEM leukemia
[5] = tested on: COLO 205 colon
[6] = tested on: DLD-1 colon
[7] = tested on: DMS 114 small cell lung
[8] = tested on: DMS 273 small cell lung
[9] = tested on: EKVX NSCLC
[10] = tested on: HCC-2998 colon
[11] = tested on: HCT-116 colon
[12] = tested on: HCT-15 colon
[13] = tested on: HL-60(TB) leukemia
[14] = tested on: HOP-18 NSCLC
[15] = tested on: HOP-62 NSCLC
[16] = tested on: HOP-92 NSCLC
[17] = tested on: HT29 colon
[18] = tested on: IGROV1 ovarian
[19] = tested on: K-562 leukemia
[20] = tested on: KM12 colon
[21] = tested on: KM20L2 colon
[22] = tested on: LOX IMVI melanoma
[23] = tested on: M19-MEL melanoma
[24] = tested on: MALME-3M melanoma
[25] = tested on: MCF7 breast
[26] = tested on: MOLT-4 leukemia
[27] = tested on: NCI-H226 lung
[28] = tested on: NCI-H23 lung
[29] = tested on: NCI-H460 lung
[30] = tested on: NCI-H522 lung
[31] = tested on: NCI/ADR-RES ovarian
[32] = tested on: OVCAR-3 ovarian
[33] = tested on: OVCAR-4 ovarian
[34] = tested on: OVCAR-5 ovarian
[35] = tested on: OVCAR-8 ovarian
[36] = tested on: P388 leukemia
[37] = tested on: P388/ADR leukemia
[38] = tested on: RPMI-8226 leukemia
[39] = tested on: RXF 393 renal
[40] = tested on: SF-268 CNS
[41] = tested on: SF-295 CNS
[42] = tested on: SF-539 CNS
[43] = tested on: SK-MEL-2 melanoma
[44] = tested on: SK-MEL-28 melanoma
[45] = tested on: SK-MEL-5 melanoma
[46] = tested on: SK-OV-3 ovarian
[47] = tested on: SN12C renal
[48] = tested on: SN12K1 renal
[49] = tested on: SNB-19 CNS
[50] = tested on: SNB-75 CNS
[51] = tested on: SNB-78 CNS
[52] = tested on: SW-620 colon
[53] = tested on: U251 CNS
[54] = tested on: UACC-257 melanoma
[55] = tested on: UACC-62 melanoma
[56] = tested on: UO-31 renal
[57] = tested on: XF 498 CNS
[58] = tested on: 786-0 renal
[59] = tested on: ACHN renal
[60] = tested on: LXFL 529 NSCLC
[61] = tested on: M14 melanoma
[62] = tested on: RXF-631 renal
[63] = tested on: SR leukemia
[64] = tested on: TK-10 renal

CCOC(=O)/C(O)=C1\C(=O)N(C)C(=O)C1c1cccc(OC)c1 (stereo not drawn)
TGI [1]: > 100 µM
TGI [2]: > 100 µM
TGI [3]: > 100 µM
TGI [4]: > 100 µM
TGI [5]: > 100 µM
TGI [6]: > 100 µM
TGI [7]: > 100 µM
TGI [8]: > 100 µM
TGI [9]: > 100 µM
TGI [10]: > 100 µM
TGI [11]: > 100 µM
TGI [12]: > 100 µM
TGI [13]: > 100 µM
TGI [14]: > 100 µM
TGI [15]: > 100 µM
TGI [16]: > 100 µM
TGI [17]: > 100 µM
TGI [18]: > 100 µM
TGI [19]: > 100 µM
TGI [20]: > 100 µM
TGI [21]: > 100 µM
TGI [22]: > 100 µM
TGI [23]: > 100 µM
TGI [24]: > 100 µM
TGI [25]: > 100 µM
TGI [26]: > 100 µM
TGI [27]: > 100 µM
TGI [28]: > 100 µM
TGI [29]: > 100 µM
TGI [30]: > 100 µM
TGI [31]: > 100 µM
TGI [32]: > 82.1 µM
TGI [33]: > 100 µM
TGI [34]: > 100 µM
TGI [35]: > 100 µM
TGI [36]: > 100 µM
TGI [37]: > 100 µM
TGI [38]: > 100 µM
TGI [39]: > 100 µM
TGI [40]: > 100 µM
TGI [41]: > 100 µM
TGI [42]: > 100 µM
TGI [43]: > 100 µM
TGI [44]: > 100 µM
TGI [45]: > 100 µM
TGI [46]: > 100 µM
TGI [47]: > 100 µM
TGI [48]: > 100 µM
TGI [49]: > 100 µM
TGI [50]: > 100 µM
TGI [51]: > 100 µM
TGI [52]: > 100 µM
TGI [53]: > 100 µM
TGI [54]: > 100 µM
TGI [55]: > 100 µM
TGI [56]: > 100 µM
TGI [57]: > 100 µM

CCc1c2c(nc3ccc(OC(=O)N4CCC(N5CCCCC5)CC4)cc13)-c1cc3c(c(=O)n1C2)COC(=O)[C@]3(O)CC
GI50 [21]: 17.2 µM
TGI [21]: 66.3 µM
GI50 [36]: 10.1 µM
TGI [36]: 40.2 µM
GI50 [51]: 53.7 µM
TGI [51]: > 100 µM

COc1ccc2[nH]c3c(c2c1)[C@H](C)C[C@@H]1C(=O)N(c2ccccc2)C(=O)[C@H]31
TGI [58]: 48.5 µM
TGI [1]: 64.9 µM
TGI [2]: 62.4 µM
TGI [59]: > 100 µM
TGI [3]: > 100 µM
TGI [4]: > 100 µM
TGI [5]: > 100 µM
TGI [6]: > 100 µM
TGI [7]: > 100 µM
TGI [8]: > 100 µM
TGI [9]: > 100 µM
TGI [10]: > 100 µM
TGI [11]: 38.8 µM
TGI [12]: > 100 µM
TGI [13]: > 100 µM
TGI [14]: 46.3 µM
TGI [15]: 52.5 µM
TGI [16]: 42.6 µM
TGI [18]: > 100 µM
TGI [19]: > 100 µM
TGI [20]: 41.9 µM
TGI [21]: > 100 µM
TGI [22]: > 100 µM
TGI [60]: > 100 µM
TGI [61]: > 100 µM
TGI [23]: > 100 µM
TGI [24]: 79.8 µM
TGI [26]: 56.6 µM
TGI [28]: 66.8 µM
TGI [29]: > 100 µM
TGI [30]: 42.1 µM
TGI [32]: 56.1 µM
TGI [33]: 45.2 µM
TGI [34]: > 100 µM
TGI [35]: 37.8 µM
TGI [39]: 53.1 µM
TGI [62]: 58.7 µM
TGI [40]: 63.1 µM
TGI [41]: 70.9 µM
TGI [42]: 41 µM
TGI [43]: > 100 µM
TGI [44]: > 100 µM
TGI [45]: > 100 µM
TGI [46]: 46 µM
TGI [47]: 58.6 µM
TGI [49]: > 100 µM
TGI [50]: 48.1 µM
TGI [63]: 70.1 µM
TGI [52]: > 100 µM
TGI [64]: > 100 µM
TGI [53]: 32.4 µM
TGI [54]: > 100 µM
TGI [55]: > 100 µM
TGI [56]: > 100 µM
TGI [57]: 74.1 µM
